Data reported in patent US20260137701A1, “CHOLESTENOIC ACID (CA) AND A SULFATED DERIVATIVE THEREOF, 3[BETA]-SULFATE-5-CHOLESTENOIC ACID (CA3S), AS ENDOGENOUS EPIGENETIC REGULATORS” (priority 2022, published 2026).

Key:
recombinant DNMT1 = recombinant DNMT1 (Homo sapiens, UniProt P26358); experiment: DNMT1 enzyme kinetic (activity) assay, 3H-SAM filter; type: biochemical
Experimental: (§1) The enzyme kinetic studies were carried out by Reaction Biology Company. For the DNMT1 activity assay, the substrate solution, 0.001 mg/ml Poly(dI-dC): Poly(dI-dC) in 50 mM Tris-HCl, pH 7.5, 50 mM NaCl, 5 mM EDTA, 5 mM DTT, 1 mM PMSF, 5% glycerol, 0.01% Brij™35, 1% DMSO was used. For the DNMT3a/3b activity assay, 0.0075 mg/ml Lambda DNA in 50 mM Tris-HCl, pH 7.5, 50 mM NaCl, 5 mM EDTA, 5 mM DTT, 1 mM PMSF, 5% glycerol, 1% DMSO, was used. The indicated DNMT1, DNMT3a and DNMT3b were added to the appropriate substrate solution and gently mixed. Amounts of CA ranging from 5.08E-09 to 0.0001 M in DMSO were added to the reaction mixture by using Acoustic Technology (Echo® 550, LabCyte Inc. Sunnyvale, CA). The mixtures were first incubated for 15 min, then ^3H-SAM was added to the reaction mixture to initiate the reaction, and the mixture was incubated for 60 min at 30° C. Following incubation, the reaction mixture was finally transferred to filter-paper for detection of radioactivity counts.

recombinant DNMT3b = recombinant DNMT3b (Homo sapiens, UniProt Q9UBC3); experiment: DNMT3b enzyme kinetic (activity) assay, 3H-SAM filter; type: biochemical; details: read-out: IC50, inhibits DNMT3b activity
Experimental: as §1

HepG-2 cells [1] = experiment: LC-MS/MS determination of CA levels in total cellular and nuclear extracts; type: in vitro ADME, human; details: addition of 20 μM CA
Experimental: HepG-2 cells, 5,000 cells/cm^2, were cultured in DMEM (HG, 10% FBS) medium for 3 days, and then treated with 20 μM of CA for 0, 3, 6, 12, and 24 hours. After treatment, the cells were washed twice with cold PBS then harvested with 1 ml PBS. For total cell extraction, the cells were collected by centrifuge at 1,000 rpm for 5 min. For nuclei extraction, the nuclear fractions were extracted according to the manufacture's instructions for NE-PER™ Nuclear and Cytoplasmic Extraction Reagents (Thermo Scientific, Rockford, IL). Total proteins in the cell and nuclear fractions were digested with proteinase K (2 mg/ml), incubated at 50° C. with shaking for 3 hours. The total lipids in the total cell and nuclear fractions were extracted with 10 volumes of chloroform:methanol 1:1, vortexed, and sonicated for 30 mins. The extracts were centrifuged at 1,000 rpm for 5 min, the supernatants were dried up by stream nitrogen, then dissolved with 200 μl of methanol, 2 μl of the extracts were used for the CA analysis by LC-MS/MS system as below.
Shimadzu LCMS-8600 CL LC-MS system equipped with electrospray ionization (ESI) were used to determine the CA levels. Data were collected and processed using Shimadzu Lab solutions software. Hypersil Gold™ C18 (50 mm×2.1 mm inner diameter, particle size 2.6 μm, Thermo Scientific) was maintained at 40° C. during the analysis. […]

NAFLD mouse model = experiment: western diet-induced NAFLD mice model, health and serum enzymes; type: in vivo; details: 10 mg/kg CA injection, two weeks
Source text: The animal studies were approved by the Institutional Animal Care and Use Committee of McGuire Veterans Affairs Medical Center and conducted in accordance with the Declaration of Helsinki, the Guide for the Care and Use of Laboratory Animals, and all applicable regulations. In this study, a western diet-induced nonalcoholic fatty liver disease (NAFLD) mice model was used. To create the model, eight-week-old C57BL/6J female mice were purchased from the Jackson Laboratory and fed a western diet (TD.88137, Envigo) along with high glucose/fructose water (WDSW) containing 23.1 g/L fructose and 18.9 g/L glucose for 12 weeks. After establishing the model, the mice were separated into three groups based on their weight. For the control mice in each group, they received intravenous injection (IV) with vehicle (DMSO). In contrast, the treatment group mice were intravenously injected with 10 mg/kg of CA (dissolved in DMSO) with a total volume of less than 100 μl. During the treatment period, injections were administered every two days. All mice were housed under identical conditions in an aseptic facility with a 12-hour light/12-hour dark cycle and provided with free access to water and food (WDSW). Before scarification, the mice fasted overnight. Blood samples were collected, and the serum enzymatic activities of alkaline phosphatase (ALK), alanine aminotransferase (ALT), and aspartate aminotransferase (AST) were measured in the clinical laboratory at McGuire Veterans Affairs Medical Center.

AMPK = experiment: Western blot analysis of AMPK protein; type: cell-based, human; details: HepG-2, high glucose media, 20 μM CA, 24 hours
Experimental: Specific proteins were analyzed by western blot. The proteins were extracted using M-PER™ Mammalian Protein Extraction Reagents (Fisher Scientific). For each sample, 20 μg of proteins were separated on 8%-12% SDS polyacrylamide gel electrophoresis (SDS-PAGE) gels. Electrophoresis was performed at 100V for 15 min and 200V for another 25 min in a Bio-Rad mini-gel system. After electrophoresis, samples were transferred onto a polyvinylidene difluoride (PVDF) membrane at 30V for 50 min. The specific proteins on the membrane were detected by incubation with anti-AMPKα1/2 (Santa Cruz Biotechnologies) primary antibody at 4° C. overnight, followed by further incubation with an appropriate horseradish peroxidase (HRP)-conjugated secondary antibody (Bio-Rad) at room temperature for 1 hr. Each positive band was quantified by Advanced Image Data Analyzer (Aida, Straubenhardt, Germany).

HepG-2 cells [2] = experiment: RT-qPCR of genes of lipid metabolism and calcium signaling; type: cell-based, human; details: concentration and time dependent
Experimental: After culturing HepG-2 cells in DMEM medium with HG for 72 hours followed by treating with 20 μM CA for 0, 3, 6, 12, and 24 hours, genomic DNA from 5×10^7 cells were extracted using QIAamp® DNA Mini Kit (QIAGEN, Hilden, Germany). Each sample, 6 μg, was sent to CD Genomics Co., Ltd (New York, USA) for analysis of WGBS. Total RNA was isolated using the Promega SV total RNA isolation system (Madison, WI, USA) with DNase treatment. Each sample, 2 μg, were sent to CD Genomics Co., Ltd (New York, USA) for analysis of RNA sequencing. The same samples, 2 μg, was used for the first-strand cDNA synthesis as recommended by the manufacturer (Invitrogen, Carlsbad, CA). RT-qPCR was performed using SYBR Green as the indicator on ABI 7500 Fast Real-Time PCR System (Applied Biosystems, Foster City, CA). Amplifications of j-actin or GAPDH were used as internal controls. Relative messenger RNA (mRNA) expression was quantified with the comparative cycle threshold (Ct) method using a sutiable primer set and was expressed as 2-ΔΔCt as described previously.

HepG-2 cells [3] = experiment: HepG-2 cell death; type: cell-based, human
[4] = tested on: normal primary human hepatocytes (PHH)

recombinant DNMT1, sequence (P26358 whole entry): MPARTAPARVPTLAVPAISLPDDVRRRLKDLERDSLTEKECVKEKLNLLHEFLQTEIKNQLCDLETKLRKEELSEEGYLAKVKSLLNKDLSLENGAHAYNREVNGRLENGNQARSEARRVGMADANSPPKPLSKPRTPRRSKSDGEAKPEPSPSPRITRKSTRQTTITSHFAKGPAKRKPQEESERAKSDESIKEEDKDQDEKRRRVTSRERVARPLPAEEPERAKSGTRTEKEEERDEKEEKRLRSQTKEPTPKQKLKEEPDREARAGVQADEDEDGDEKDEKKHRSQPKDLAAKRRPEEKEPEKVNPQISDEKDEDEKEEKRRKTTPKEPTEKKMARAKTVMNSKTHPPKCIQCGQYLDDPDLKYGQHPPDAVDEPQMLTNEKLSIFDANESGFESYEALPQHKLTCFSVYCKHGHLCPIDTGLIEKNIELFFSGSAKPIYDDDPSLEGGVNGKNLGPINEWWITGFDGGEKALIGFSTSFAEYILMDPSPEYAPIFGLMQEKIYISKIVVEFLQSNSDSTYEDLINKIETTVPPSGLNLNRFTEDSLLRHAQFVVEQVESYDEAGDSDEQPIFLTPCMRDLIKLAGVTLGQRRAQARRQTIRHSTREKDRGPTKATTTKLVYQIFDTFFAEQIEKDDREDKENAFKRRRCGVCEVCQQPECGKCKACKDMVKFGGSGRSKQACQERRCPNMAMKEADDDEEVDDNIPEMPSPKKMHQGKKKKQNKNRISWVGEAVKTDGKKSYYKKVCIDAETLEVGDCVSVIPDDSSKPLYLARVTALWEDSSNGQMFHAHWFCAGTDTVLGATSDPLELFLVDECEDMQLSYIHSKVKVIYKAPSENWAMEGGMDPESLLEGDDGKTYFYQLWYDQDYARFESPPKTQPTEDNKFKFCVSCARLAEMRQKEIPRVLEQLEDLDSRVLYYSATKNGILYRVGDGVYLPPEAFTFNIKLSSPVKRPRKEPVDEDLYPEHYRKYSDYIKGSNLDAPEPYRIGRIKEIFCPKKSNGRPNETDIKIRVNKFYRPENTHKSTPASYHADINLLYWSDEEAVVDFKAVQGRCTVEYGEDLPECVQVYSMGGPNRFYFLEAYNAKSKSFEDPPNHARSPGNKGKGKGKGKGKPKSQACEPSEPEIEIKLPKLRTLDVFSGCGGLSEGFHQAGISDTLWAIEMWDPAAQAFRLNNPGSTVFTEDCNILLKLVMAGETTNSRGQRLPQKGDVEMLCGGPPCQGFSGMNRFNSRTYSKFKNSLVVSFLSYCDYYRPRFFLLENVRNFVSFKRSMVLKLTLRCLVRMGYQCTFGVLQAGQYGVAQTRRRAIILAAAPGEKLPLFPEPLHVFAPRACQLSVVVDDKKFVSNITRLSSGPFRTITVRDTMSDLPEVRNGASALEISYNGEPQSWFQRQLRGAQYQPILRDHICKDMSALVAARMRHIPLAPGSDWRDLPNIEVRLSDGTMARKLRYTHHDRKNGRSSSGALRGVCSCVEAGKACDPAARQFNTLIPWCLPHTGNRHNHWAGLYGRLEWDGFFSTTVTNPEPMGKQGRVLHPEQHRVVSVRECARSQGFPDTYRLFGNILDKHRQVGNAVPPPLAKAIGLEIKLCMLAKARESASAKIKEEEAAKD

CC(CCC[C@@H](C)[C@H]1CC[C@H]2[C@@H]3CC=C4C[C@@H](O)CC[C@]4(C)[C@H]3CC[C@]12C)C(=O)O (stereo partly drawn) [CA, 3β-hydroxy-5-cholestenoic acid]
IC50 (recombinant DNMT1; at higher concentration, read-out: IC50, inhibits DNMT1 activity): 9.13 µM | EC50 (recombinant DNMT1; at low concentration, mean±SD, n=3, read-out: EC50, activates DNMT1): 1.99 µM | IC50 (recombinant DNMT3b): 4.89 µM | increase of CA in cellular nuclei (HepG-2 cells [1]; 6 hours): 4 fold | increase of intracellular CA levels (HepG-2 cells [1]; 12 hours): 85 fold | in vivo toxicity, health of mice (NAFLD mouse model): remained in good health | serum activity of ALK (NAFLD mouse model): significant decrease | serum activity of ALT (NAFLD mouse model): significant decrease | protein levels of AMPK (AMPK): significantly increased | levels of mRNA encoding FAS (HepG-2 cells [2]; 0-20 μM CA 6 hours): decreased | levels of mRNA encoding HMGR (HepG-2 cells [2]; 0-20 μM CA 6 hours): decreased | levels of mRNA encoding PCSK9 (HepG-2 cells [2]; 0-20 μM CA 6 hours): decreased | expression of CACNA1D (HepG-2 cells [2]): up-regulated | expression of CACNA1H (HepG-2 cells [2]): up-regulated | expression of CAMK2B (HepG-2 cells [2]): up-regulated | HepG-2 cell death (HepG-2 cells [3]): induces HepG-2 cell death | death of normal primary human hepatocytes [4]: not the death
